Measured values reported in patent US9597407B2, “Targeted antimicrobial moieties” (C3 Jian, Inc., priority 2009, dated 2017).
Entries after “also recorded” stand apart in the source; their conditions may differ. Ends that are not written are not given here.

Key:
microorganisms [1] = assay: Peptide activities: binding, antimicrobial, growth or phenotype altering (Table 8)
Excerpt: In certain embodiments, peptides described herein can have multiple activities. Thus for example, a peptide can have both binding/targeting activity and antimicrobial activity. Such peptides can be used, e.g., in a chimeric construct, for any or all of these properties. Thus, for example, a peptide designated “B” in Table 8 can be used as a targeting peptide. If it is also designated G or M it can also be used for antimicrobial activity.

microorganisms [2] = assay: Morphology, biofilm and growth disruption by peptides (Table 5); type: cell-based; set-up: key: A: Peptide aggregates; B: Less hyphal formation; Clumps; Diffuse clumps and small polyps; F: Diffuse growth; H: Thin; I: Growth inhibition; Microcolony formation; Rippled; Small polyps; Thick; W: Halo formation on top, microlonies on bottom
Excerpt: In certain embodiments peptides that induce alterations in phenotype or other biological activities can also be used as antimicrobial effector moieties.

bacteria = assay: Binding of targeting peptides to microorganisms (Table 3); settings: preferably 1x PBS; for Target(s): microorganism bound by the targeting peptide, binding in aqueous buffers chosen by peptide solubility; for Target(s) (microorganisms bound by the targeting peptide): peptide binding in aqueous buffers that varied depending on peptide solubility

Substance | Activities (microorganisms [1]) | Organism, effect (microorganisms [2]; MRSA) | Organism, effect (microorganisms [2]; S. epidermidis) | Organism, effect (microorganisms [2]; C. jeikeium) | Organism, effect (microorganisms [2]; M. luteus) | also measured
AL C SVIKAIEL GIINVHL Q [PF-366] | G B | MRSA (D) | S. epidermidis (R) | – | – | Organism, effect (microorganisms [2]; C. jejuni): C. jejuni (D); Organism, effect (microorganisms [2]; E. coli): E. coli (C); Organism, effect (microorganisms [2]; E. faecalis): E. faecalis (C); Organism, effect (microorganisms [2]; P. aeruginosa): P. aeruginosa (A); Organism, effect (microorganisms [2]; S. pneumoniae): S. pneumoniae (C)
PF-012 (WRGPNTEAGGKSANNIVQVGGAPT; Peptide with targeting and/or antimicrobial activity) | G B | MRSA (R) | S. epidermidis (S) | C. jeikeium (A) | M. luteus (C) | –
PF-022 (MINELKNKNSGIMNNYVVTKESKL; Peptide with targeting and/or antimicrobial activity) | G B | MRSA (R) | S. epidermidis (D) | C. jeikeium (A) | M. luteus (A) | –
PF-030 (MTCHQAPTTTHQSNMA; Peptide with targeting and/or antimicrobial activity) | G B | MRSA (R) | S. epidermidis (D) | C. jeikeium (C) | M. luteus (C) | –
PF-042 (LLLSYFRYTGALLQSLF; Peptide with targeting and/or antimicrobial activity) | G B | MRSA (R) | S. epidermidis (D) | C. jeikeium (S) | M. luteus (C) | –
PF-056 (AEQLFGKQKQRGVDLFLNRLTIILSILFFVLMICISYLGM; Peptide with targeting and/or antimicrobial activity) | G B | MRSA (M) | S. epidermidis (D) | C. jeikeium (S) | M. luteus (D) | Organism, effect (microorganisms [2]; B. subtilis): B. subtilis (C); Organism, effect (microorganisms [2]; C. albicans): C. albicans (B); Organism, effect (microorganisms [2]; C. jejuni): C. jejuni (D); Organism, effect (microorganisms [2]; S. pneumoniae): S. pneumoniae (D)
SIGSMIGMYSFRHKTKHIKFTFGIPFILFLQFLLVYFYILK [PF-319] | – | – | S. epidermidis (C) | – | – | Target(s) (bacteria): S. epidermidis; also recorded: B. subtilis; also recorded: C. difficile; Organism, effect (microorganisms [2]; B. subtilis): B. subtilis (C)
SLQSQLGPCLHDQRH [PF-448] | – | – | – | – | – | Target(s) (microorganisms bound by the targeting peptide) (bacteria): S. epidermidis; also recorded: M. luteus; also recorded: P. mirabilis; also recorded: E. coli; also recorded: S. pneumoniae; also recorded: E. faecalis; also recorded: C. jeikeium; also recorded: C. jejuni; Organism, effect (morphology, biofilm and growth disruption) (microorganisms [2]; S. pneumoniae): S. pneumoniae (I)
VLPFPAIPLSRRRACVAAPRPRSRQRAS [PF-168] | – | MRSA (I) | – | – | – | Target(s) (bacteria): S. epidermidis and M. luteus and E. coli and C. albicans and MRSA and C. jeikeium and C. jejuni; Organism, effect (microorganisms [2]; P. aeruginosa): P. aeruginosa (H)
VMQSLYVKPPLILVTKLAQQN [PF-511] | – | – | – | – | – | Target(s) (microorganisms bound by the targeting peptide) (bacteria): E. coli; also recorded: P. aeruginosa; also recorded: S. pneumoniae; also recorded: C. jeikeium; Organism, effect (morphology, biofilm and growth disruption) (microorganisms [2]; S. pneumoniae): S. pneumoniae (H)
VWENRKKYLENEIERHNVFLKLGQEVIKGLNALASRGR [PF-257] | – | – | – | – | M. luteus (R) | Target(s) (bacteria): S. epidermidis
WSRVPGHSDTGWKVWHRW-NH2 [PF-547] | – | – | – | – | – | Target(s) (microorganisms bound by the targeting peptide) (bacteria): S. epidermidis and E. coli and P. aeruginosa and C. albicans and MRSA and S. pneumoniae and E. faecalis; Organism, effect (morphology, biofilm and growth disruption) (microorganisms [2]; B. subtilis): B. subtilis (I); Organism, effect (morphology, biofilm and growth disruption) (microorganisms [2]; E. faecalis): E. faecalis (R); Organism, effect (morphology, biofilm and growth disruption) (microorganisms [2]; MRSA): MRSA (M); Organism, effect (morphology, biofilm and growth disruption) (microorganisms [2]; S. epidermidis): S. epidermidis (R)
